In US12390441B2, “Immunomodulating o-het/aryl azalides” (Zoetis Services LLC, priority 2020, dated 2025):

Experiments:
Assay in all cases: Whole blood assay, LPS stimulation, MSD cytokine detection
IL-1β = assay type: cell-based, bovine; details: fresh whole bovine blood, LPS stimulation; drug concentration giving overstimulation (OS) of IL-1β
Protocol: (§1) Compounds of the invention were evaluated against a positive control for their ability to inhibit LPS-induced IL-1p and TNF-α as an overall evaluation of relative potency and modulation of target pathways.
(§2) In the bovine whole blood in vitro screening assay the inhibition of TNFα as induced by stimulation by lipopolysaccharide (LPS) and as measured by half the maximal inhibitory concentration (IC50) is recognized as the primary biomarker of immunomodulation potency upon pretreatment with the compounds of the invention. IL-1β is a mediator of the inflammation response and is involved in a number of cellular activities including proliferation, differentiation and apoptosis. IL-1β is also released upon cellular stress or cytotoxicity or upon TLR stimulation. In the bovine whole blood assay the stimulation of IL-1β release upon increasing concentration of test compound is seen as a potential cellular toxicity signal as induced by the test compound. In order to estimate a therapeutic index from the in vitro assay a differential between the TNFα IC50 (immunomodulation potency) versus the perceived cellular toxicity concentration (IL-1β release or overstimulation) was utilized. […] As the in vitro assay index approaches 1 it is proposed that the balance between immunomodulation and cytotoxicity would be too narrow in order to achieve an efficacious dose in vivo.

TNF-α = assay type: cell-based; details: fresh whole bovine blood
Protocol: as §1, §2

IL-6 = assay type: cell-based; details: fresh whole bovine blood

| IC50 (TNF-α) [µM] | IC50 (IL-6) [µM] | IC50 (TNF-α; Bos taurus) [µM] | IC50 (IL-6; Bos taurus) [µM] | Compound | IL-1ß OS of LPS (IL-1β) [µM] |
| --- | --- | --- | --- | --- | --- |
| 32 | 71 | – | – | CC[C@H]1OC(=O)[C@H](C)[C@@H](O[C@H]2C[C@@](C)(OC)[C@](O)(CNCCOC)[C@H](C)O2)[C@H](C)[C@@H](O[C@@H]2O[C@H](C)C[C@H](NC)[C@H]2Oc2ccccc2)[C@](C)(O)C[C@@H](C)CN[C@H](C)[C@@H](O)[C@]1(C)O [Example E-130] | 40 |
| 35 | 52 | – | – | CC[C@H]1OC(=O)[C@H](C)[C@@H](O[C@H]2C[C@@](C)(OC)[C@](O)(CNCCCOC)[C@H](C)O2)[C@H](C)[C@@H](O[C@@H]2O[C@H](C)C[C@H](NC)[C@H]2Oc2ccccc2)[C@](C)(O)C[C@@H](C)CN[C@H](C)[C@@H](O)[C@]1(C)O [Example E-131] | 100 |
| 7 | 19 | – | – | CC[C@H]1OC(=O)[C@H](C)[C@@H](O[C@H]2C[C@@](C)(OC)[C@](O)(CNC3CCC3)[C@H](C)O2)[C@H](C)[C@@H](O[C@@H]2O[C@H](C)C[C@H](N(C)C)[C@H]2Oc2ccccc2)[C@](C)(O)C[C@@H](C)CN[C@H](C)[C@@H](O)[C@]1(C)O [Example E-141] | 16 |
| 4 | 18 | – | – | CC[C@H]1OC(=O)[C@H](C)[C@@H](O[C@H]2C[C@@](C)(OC)[C@](O)(CNC(C)C)[C@H](C)O2)[C@H](C)[C@@H](O[C@@H]2O[C@H](C)C[C@H](N(C)C)[C@H]2Oc2ccccc2)[C@](C)(O)C[C@@H](C)CN[C@H](C)[C@@H](O)[C@]1(C)O [Example E-142] | 16 |
| 34 | 86 | – | – | CC[C@H]1OC(=O)[C@H](C)[C@@H](O[C@H]2C[C@@](C)(OC)[C@](O)(CN(C)CCN(C)C)[C@H](C)O2)[C@H](C)[C@@H](O[C@@H]2O[C@H](C)C[C@H](N(C)C)[C@H]2Oc2ccccc2)[C@](C)(O)C[C@@H](C)CN[C@H](C)[C@@H](O)[C@]1(C)O [Example E-143] | 40 |
| 8 | 87 | – | – | CC[C@H]1OC(=O)[C@H](C)[C@@H](O[C@H]2C[C@@](C)(OC)[C@](O)(CNCCN(C)C)[C@H](C)O2)[C@H](C)[C@@H](O[C@@H]2O[C@H](C)C[C@H](N(C)C)[C@H]2Oc2ccccc2)[C@](C)(O)C[C@@H](C)CN[C@H](C)[C@@H](O)[C@]1(C)O [Example E-144] | 40 |
| 17 | 42 | – | – | CC[C@H]1OC(=O)[C@H](C)[C@@H](O[C@H]2C[C@@](C)(OC)[C@](O)(CNCCOC)[C@H](C)O2)[C@H](C)[C@@H](O[C@@H]2O[C@H](C)C[C@H](N(C)C)[C@H]2Oc2ccccc2)[C@](C)(O)C[C@@H](C)CN[C@H](C)[C@@H](O)[C@]1(C)O [Example E-145] | >250 |
| 12 | 45 | – | – | CC[C@H]1OC(=O)[C@H](C)[C@@H](O[C@H]2C[C@@](C)(OC)[C@](O)(CNCCCOC)[C@H](C)O2)[C@H](C)[C@@H](O[C@@H]2O[C@H](C)C[C@H](N(C)C)[C@H]2Oc2ccccc2)[C@](C)(O)C[C@@H](C)CN[C@H](C)[C@@H](O)[C@]1(C)O [Example E-146] | 40 |
| – | – | 8 | 8 | CCCNC[C@]1(O)[C@H](C)O[C@@H](O[C@H]2[C@H](C)[C@@H](O[C@@H]3O[C@H](C)C[C@H](NCC(C)C)[C@H]3Oc3ccccc3)[C@](C)(O)C[C@@H](C)CN[C@H](C)[C@@H](O)[C@](C)(O)[C@@H](CC)OC(=O)[C@@H]2C)C[C@@]1(C)OC [Example E-155] | 6 |
| 8 | 10 | – | – | CCCNC[C@]1(O)[C@H](C)O[C@@H](O[C@H]2[C@H](C)[C@@H](O[C@@H]3O[C@H](C)C[C@H](N(CC)CC)[C@H]3Oc3ccccc3)[C@](C)(O)C[C@@H](C)CN[C@H](C)[C@@H](O)[C@](C)(O)[C@@H](CC)OC(=O)[C@@H]2C)C[C@@]1(C)OC [Example E-156] | 16 |
| 11 | 4 | – | – | CCCNC[C@]1(O)[C@H](C)O[C@@H](O[C@H]2[C@H](C)[C@@H](O[C@@H]3O[C@H](C)C[C@H](N(C)C(=O)N(C)C(C)C)[C@H]3Oc3ccccc3)[C@](C)(O)C[C@@H](C)CN[C@H](C)[C@@H](O)[C@](C)(O)[C@@H](CC)OC(=O)[C@@H]2C)C[C@@]1(C)OC [Example F-27] | 1 |

More lines, now with the values behind:

| Compound | IC50 (TNF-α) [µM] | IC50 (IL-6) [µM] | IC50 (TNF-α; Bos taurus) [µM] | IC50 (IL-6; Bos taurus) [µM] | IL-1ß OS of LPS (IL-1β) [µM] |
| --- | --- | --- | --- | --- | --- |
| CC[C@H]1OC(=O)[C@H](C)[C@@H](O[C@H]2C[C@@](C)(OC)[C@](O)(CN(C)CCN(C)C)[C@H](C)O2)[C@H](C)[C@@H](O[C@@H]2O[C@H](C)C[C@H](NC)[C@H]2Oc2ccccc2)[C@](C)(O)C[C@@H](C)CN[C@H](C)[C@@H](O)[C@]1(C)O [Example E-128] | 100 | 147 | – | – | 100 |
| CC[C@H]1OC(=O)[C@H](C)[C@@H](O[C@H]2C[C@@](C)(OC)[C@](O)(CNCC3CC3)[C@H](C)O2)[C@H](C)[C@@H](O[C@@H]2O[C@H](C)C[C@H](NC)[C@H]2Oc2ccccc2)[C@](C)(O)C[C@@H](C)CN[C@H](C)[C@@H](O)[C@]1(C)O [Example E-132] | 31 | 60 | – | – | 100 |
| CC[C@H]1OC(=O)[C@H](C)[C@@H](O[C@H]2C[C@@](C)(OC)[C@](O)(CNn3ccnc3)[C@H](C)O2)[C@H](C)[C@@H](O[C@@H]2O[C@H](C)C[C@H](NC)[C@H]2Oc2ccccc2)[C@](C)(O)C[C@@H](C)CN[C@H](C)[C@@H](O)[C@]1(C)O [Example E-138] | 48 | 87 | – | – | 40 |
| CCCNC[C@]1(O)[C@H](C)O[C@@H](O[C@H]2[C@H](C)[C@@H](O[C@@H]3O[C@H](C)C[C@H](N(C)Cc4ccc(OC)cc4)[C@H]3Oc3ccccc3)[C@](C)(O)C[C@@H](C)CN[C@H](C)[C@@H](O)[C@](C)(O)[C@@H](CC)OC(=O)[C@@H]2C)C[C@@]1(C)OC [Example E-147] | 6 | 5 | – | – | 4 |
| CCCNC[C@]1(O)[C@H](C)O[C@@H](O[C@H]2[C@H](C)[C@@H](O[C@@H]3O[C@H](C)C[C@H](N(C)Cc4ccccc4)[C@H]3Oc3ccccc3)[C@](C)(O)C[C@@H](C)CN[C@H](C)[C@@H](O)[C@](C)(O)[C@@H](CC)OC(=O)[C@@H]2C)C[C@@]1(C)OC [Example E-148] | 2 | 1 | – | – | 1 |
| CCCNC[C@]1(O)[C@H](C)O[C@@H](O[C@H]2[C@H](C)[C@@H](O[C@@H]3O[C@H](C)C[C@H](N(C)Cc4cccnc4)[C@H]3Oc3ccccc3)[C@](C)(O)C[C@@H](C)CN[C@H](C)[C@@H](O)[C@](C)(O)[C@@H](CC)OC(=O)[C@@H]2C)C[C@@]1(C)OC [Example E-149] | 10 | 6 | – | – | 2 |
| CCCNC[C@]1(O)[C@H](C)O[C@@H](O[C@H]2[C@H](C)[C@@H](O[C@@H]3O[C@H](C)C[C@H](N(C)Cc4nccs4)[C@H]3Oc3ccccc3)[C@](C)(O)C[C@@H](C)CN[C@H](C)[C@@H](O)[C@](C)(O)[C@@H](CC)OC(=O)[C@@H]2C)C[C@@]1(C)OC [Example E-150] | 6 | 3 | – | – | 1 |
| CCCNC[C@]1(O)[C@H](C)O[C@@H](O[C@H]2[C@H](C)[C@@H](O[C@@H]3O[C@H](C)C[C@H](NC)[C@H]3Oc3ccc(OC)cc3)[C@](C)(O)C[C@@H](C)CN(C)[C@H](C)[C@@H](O)[C@](C)(O)[C@@H](CC)OC(=O)[C@@H]2C)C[C@@]1(C)OC [Example E-151] | 23 | 23 | – | – | 16 |
| CCCNC[C@]1(O)[C@H](C)O[C@@H](O[C@H]2[C@H](C)[C@@H](O[C@@H]3O[C@H](C)C[C@H](NC)[C@H]3Oc3ccccc3)[C@](C)(O)C[C@@H](C)CN(C)[C@H](C)[C@@H](O)[C@](C)(O)[C@@H](CC)OC(=O)[C@@H]2C)C[C@@]1(C)OC [Example E-152] | 23 | 21 | – | – | 16 |
| CCCNC[C@]1(O)[C@H](C)O[C@@H](O[C@H]2[C@H](C)[C@@H](O[C@@H]3O[C@H](C)C[C@H](NC)[C@H]3Oc3ccc(F)cc3)[C@](C)(O)C[C@@H](C)CN(C)[C@H](C)[C@@H](O)[C@](C)(O)[C@@H](CC)OC(=O)[C@@H]2C)C[C@@]1(C)OC [Example E-153] | 21 | 18 | – | – | 16 |
| CCCNC[C@]1(O)[C@H](C)O[C@@H](O[C@H]2[C@H](C)[C@@H](O[C@@H]3O[C@H](C)C[C@H](NC4CCCCC4)[C@H]3Oc3ccccc3)[C@](C)(O)C[C@@H](C)CN[C@H](C)[C@@H](O)[C@](C)(O)[C@@H](CC)OC(=O)[C@@H]2C)C[C@@]1(C)OC [Example E-154] | 5 | 4 | – | – | 1 |
| CCCNC[C@]1(O)[C@H](C)O[C@@H](O[C@H]2[C@H](C)[C@@H](O[C@@H]3O[C@H](C)C[C@H](NC)[C@H]3Oc3ccccc3)[C@](C)(O)C[C@@H](C)CN(CCC)[C@H](C)[C@@H](O)[C@](C)(O)[C@@H](CC)OC(=O)[C@@H]2C)C[C@@]1(C)OC [Example E-157] | – | – | 9 | 10 | 16 |
| CCCNC[C@]1(O)[C@H](C)O[C@@H](O[C@H]2[C@H](C)[C@@H](O[C@@H]3O[C@H](C)C[C@H](N(C)C(=O)N(C)c4ncccn4)[C@H]3Oc3ccccc3)[C@](C)(O)C[C@@H](C)CN[C@H](C)[C@@H](O)[C@](C)(O)[C@@H](CC)OC(=O)[C@@H]2C)C[C@@]1(C)OC [Example F-8] | 169 | 167 | – | – | 40 |
